Measurements published in PMC3165067 (Journal of medicinal chemistry, 2011).

Columns and labels:
[1] = biological target: T1, Antithrombin inhibition of factor Xa (Homo sapiens, UniProt P01008); experiment: Kinetics of antithrombin inhibition of factor Xa in presence of activators; format: biochemical; details: for kACT (second-order rate constant of fXa inhibition by AT–activator complex): pH 6.0, 25 mM NaCl, 25 °C, error ±1 S.E.
[2] = biological target: T1, Antithrombin inhibition of factor Xa; details: ref [32], cited from earlier work

T1 sequence (P01008 33-464): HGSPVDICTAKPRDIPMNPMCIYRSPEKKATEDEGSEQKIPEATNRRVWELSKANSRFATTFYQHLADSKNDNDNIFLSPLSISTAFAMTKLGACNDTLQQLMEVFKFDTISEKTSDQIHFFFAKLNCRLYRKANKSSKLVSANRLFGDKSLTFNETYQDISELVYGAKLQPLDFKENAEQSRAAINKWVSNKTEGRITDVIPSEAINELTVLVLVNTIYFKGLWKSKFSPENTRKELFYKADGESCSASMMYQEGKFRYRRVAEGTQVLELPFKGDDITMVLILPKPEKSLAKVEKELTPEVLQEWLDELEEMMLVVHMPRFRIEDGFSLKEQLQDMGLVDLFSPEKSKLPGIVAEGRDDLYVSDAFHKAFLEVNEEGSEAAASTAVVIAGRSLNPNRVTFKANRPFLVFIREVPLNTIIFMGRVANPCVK

Question: Which “kACT (second-order rate constant of fXa inhibition by AT–activator complex)” value [1] does the source give for O=C(CCCc1cc(OS(=O)(=O)[O-])ccc1OS(=O)(=O)[O-])N1CCc2c(ccc(OS(=O)(=O)[O-])c2OS(=O)(=O)[O-])C1.[Na+].[Na+].[Na+].[Na+] [compound 8, 1-(5,6-di-O-sulfonato-3,4-dihydroisoquinolin-2(1H)-yl)-4-(2,5-di-O-sulfonato-phenyl)butan-1-one tetrasodium] here?
Answer: 3337 ± 265 M⁻¹ s⁻¹

Question: Which “kACT (second-order rate constant of fXa inhibition by AT–activator complex)” value [1] does the source give for O=C([O-])C1Cc2cc(OS(=O)(=O)[O-])c(OS(=O)(=O)[O-])cc2CN1C(=O)CCCc1cc(OS(=O)(=O)[O-])ccc1OS(=O)(=O)[O-].[Na+].[Na+].[Na+].[Na+].[Na+] (centres unmarked) [19c, Sodium 2-(4-(2,5-di-O-sulfonato-phenyl)butanoyl)-6,7-di-O-sulfonato-1,2,3,4-tetrahydroisoquinoline-3-carboxylate tetrasodium] here?
Answer: 9640 ± 748 M⁻¹ s⁻¹

Question: For O=S(=O)([O-])Oc1cc2c(c(OS(=O)(=O)[O-])c1)C[C@@H](OS(=O)(=O)[O-])[C@@H](c1ccc(OS(=O)(=O)[O-])c(OS(=O)(=O)[O-])c1)O2.[Na+].[Na+].[Na+].[Na+].[Na+] [ECS], which kUNCAT ([2]; 20 mM sodium phosphate buffer, pH 6.0, 0.1 mM EDTA, 0.1% PEG8000) is on record?
Answer: ~120 M⁻¹ s⁻¹

Question: What about the kACT ([2]; pH 6.0, no added NaCl) of the same molecule?
Answer: 909 ± 40 M⁻¹ s⁻¹

Question: With O=C([O-])C1Cc2c(OS(=O)(=O)[O-])ccc(OS(=O)(=O)[O-])c2CN1C(=O)CCc1cc(OS(=O)(=O)[O-])ccc1OS(=O)(=O)[O-].[Na+].[Na+].[Na+].[Na+].[Na+] (centres unmarked) [20b, Sodium 2-(3-(2,5-di-O-sulfonato-phenyl)propanoyl)-5,8-di-O-sulfonato-1,2,3,4-tetrahydroisoquinoline-3-carboxylate tetrasodium] as the molecule, how does the “kACT (second-order rate constant of fXa inhibition by AT–activator complex)” value [1] read?
Answer: 11800 ± 789 M⁻¹ s⁻¹

Question: Which results are given for O=C([O-])C1Cc2c(OS(=O)(=O)[O-])ccc(OS(=O)(=O)[O-])c2CN1C(=O)CCCc1cc(OS(=O)(=O)[O-])ccc1OS(=O)(=O)[O-].[Na+].[Na+].[Na+].[Na+].[Na+] (centres unmarked) [20c, Sodium 2-(4-(2,5-di-O-sulfonato-phenyl)butanoyl)-5,8-di-O-sulfonato-1,2,3,4-tetrahydro isoquinoline-3-carboxylate tetrasodium]?
Answer: AT activation, fold less than that achieved with DEFGH ([1]; 79-fold versus 300-fold for DEFGH): 3.8 fold; kACT (second-order rate constant of fXa inhibition by AT–activator complex) [1]: 46330 ± 2830 M⁻¹ s⁻¹

Question: Which “kACT (second-order rate constant of fXa inhibition by AT–activator complex)” value [1] does the source give for O=C([O-])C1Cc2c(OS(=O)(=O)[O-])ccc(OS(=O)(=O)[O-])c2CN1C(=O)Cc1cc(OS(=O)(=O)[O-])ccc1OS(=O)(=O)[O-].[Na+].[Na+].[Na+].[Na+].[Na+] (centres unmarked) [20a, Sodium 2-(2-(2,5-di-O-sulfonato-phenyl)acetyl)-5,8-di-O-sulfonato-1,2,3,4-tetrahydroisoquinoline-3-carboxylate tetrasodium] here?
Answer: 32630 ± 1644 M⁻¹ s⁻¹

Question: Which “kACT (second-order rate constant of fXa inhibition by AT–activator complex)” value [1] does the source give for O=C([O-])C1Cc2cc(OS(=O)(=O)[O-])c(OS(=O)(=O)[O-])cc2CN1C(=O)CCc1cc(OS(=O)(=O)[O-])ccc1OS(=O)(=O)[O-].[Na+].[Na+].[Na+].[Na+].[Na+] (centres unmarked) [19b, Sodium 2-(3-(2,5-di-O-sulfonato-phenyl)propanoyl)-6,7-di-O-sulfonato-1,2,3,4-tetrahydroisoquinoline-3-carboxylate tetrasodium] here?
Answer: 8051 ± 751 M⁻¹ s⁻¹

Question: For O=C([O-])C1Cc2cc(OS(=O)(=O)[O-])c(OS(=O)(=O)[O-])cc2CN1C(=O)Cc1cc(OS(=O)(=O)[O-])ccc1OS(=O)(=O)[O-].[Na+].[Na+].[Na+].[Na+].[Na+] (centres unmarked) [19a, Sodium 2-(2-(2,5-di-O-sulfonato-phenyl)acetyl)-6,7-di-O-sulfonato-1,2,3,4-tetrahydroisoquinoline-3-carboxylate tetrasodium], which “kACT (second-order rate constant of fXa inhibition by AT–activator complex)” value [1] is on record?
Answer: 19740 ± 1290 M⁻¹ s⁻¹

Question: For O=C(Cc1cc(OS(=O)(=O)[O-])ccc1OS(=O)(=O)[O-])N1CCc2cc(OS(=O)(=O)[O-])c(OS(=O)(=O)[O-])cc2C1.[Na+].[Na+].[Na+].[Na+] [compound 7, 1-(6,7-di-O-sulfonato-3,4-dihydroisoquinolin-2(1H)-yl)-2-(2,5-di-O-sulfonato-phenyl) ethanone tetrasodium], which “kACT (second-order rate constant of fXa inhibition by AT–activator complex)” value [1] is on record?
Answer: 4582 ± 597 M⁻¹ s⁻¹
